As a reminder, the MIC is the least concentration at which growth counts as inhibited.

What all share (experiment): Determination of MIC values (BHI broth, 96 well microtiter plate)
Common to all, as to format: cell-based

In one assay the test system is Streptococcus pneumoniae. The conditions noted are these: Streptococcus pneumoniae; S. pneu; BHI broth, overnight 37° C.; read-out: MIC S. pneu. In outline: (§1)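 MIC was read as the lowest drug concentration without observable growth after roughly 16 h at 37 °C under about 7–10% CO2. Wells held BHI broth with compound at final 25–0.39 μg/mL (1:100 from DMSO dilutions). Each well was inoculated at 10^5–10^6 cells/mL.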

For assay [1], the system named is methicillin-resistant Staphylococcus aureus (MRSA). The conditions noted are these: Staphylococcus aureus, MRSA; BHI broth, overnight 37° C.; read-out: MIC MRSA. In outline:
as §1

Assay [2] relates to vancomycin-resistant Enterococcus spp. (VRE). The conditions noted are these: Enterococcus, VRE, VREF; BHI broth, overnight 37° C.; read-out: MIC VREF. Put shortly:
as §1

Structures are written as SMILES.

Consider `Cn1cc(-c2cc(C(=O)NCc3cccc(CN)c3)c3cc(I)ccc3n2)c2cc(Cl)ccc21` [Example 225], for which the MIC (in the assay on Streptococcus pneumoniae; in assay [1]; in assay [2]) was less than 7 µg/mL in each case.
On to `NCC1CCC(CNC(=O)c2cc(-c3c[nH]c4ccc(Cl)cc34)nc3ccc(I)cc23)CC1` (stereo not drawn) [Example 226], for which the MIC in the assay with Streptococcus pneumoniae was less than 7 µg/mL; in assay [1], less than 25 µg/mL; in assay [2], less than 25 µg/mL.
In the case of `Cn1cc(-c2cc(C(=O)NCc3cccc(CN)c3)c3ccccc3n2)c2cc(Br)ccc21` [Example 227], the MIC (with Streptococcus pneumoniae; in assay [1]; in assay [2]) was less than 7 µg/mL in each case.
In the case of `NCc1ccc(CNC(=O)c2cc(-c3c[nH]c4ccc(Br)cc34)nc3ccc(/C=C/c4ccccc4)cc23)cc1` [Example 228], the MIC (in the assay with Streptococcus pneumoniae; in assay [1]; in assay [2]) was more than 25 µg/mL throughout.
Regarding `NCc1ccc(CNC(=O)c2cc(-c3c[nH]c4ccc(Cl)cc34)nc3ccc(Br)cc23)cc1` [Example 229], the MIC (in the assay on Streptococcus pneumoniae; in assay [1]; in assay [2]) was less than 7 µg/mL throughout.
Consider `NCc1ccc(CNC(=O)c2cc(-c3c[nH]c4ccc(Cl)cc34)nc3cc(Br)ccc23)cc1` [Example 230], for which the MIC (in the assay on Streptococcus pneumoniae; in assay [1]; in assay [2]) was less than 7 µg/mL each time.
With `NCc1ccc(CNC(=O)c2cc(-c3c[nH]c4ccc(Cl)cc34)nc3c(Br)cccc23)cc1` [Example 231], the MIC (in the assay with Streptococcus pneumoniae; in assay [1]; in assay [2]) was less than 7 µg/mL throughout.
Consider `Cn1cc(-c2ccc3cc(Cl)ccc3n2)c2cc([N+](=O)[O-])ccc21` [Example 232], for which the MIC (in the assay with Streptococcus pneumoniae; in assay [1]; in assay [2]) was less than 7 µg/mL each time.
For `O=C(O)c1cc(-c2c[nH]c3ccc(Br)cc23)nc2ccc(C#CCNC3CCCCC3)cc12` [Example 233], the MIC is less than 25 µg/mL with Streptococcus pneumoniae, more than 25 µg/mL in assay [1] and less than 25 µg/mL in assay [2].
For `O=C(O)c1cc(-c2c[nH]c3ccc(Br)cc23)nc2ccc(C#CCN3CCCC3)cc12` [Example 234], the MIC (in the assay on Streptococcus pneumoniae; in assay [1]; in assay [2]) was more than 25 µg/mL throughout.
`NCc1ccc(CNC(=O)c2cc(-c3c[nH]c4ccc(Br)cc34)nc3ccc(C#CCNCCc4ccc(Cl)cc4)cc23)cc1` [Example 235]: the MIC (in the assay on Streptococcus pneumoniae; in assay [1]; in assay [2]) was less than 7 µg/mL throughout.
Take `NCc1ccc(CNC(=O)c2cc(-c3c[nH]c4ccc(Br)cc34)nc3ccc(C#CCNC4CCCCC4)cc23)cc1` [Example 236]: the MIC (in the assay on Streptococcus pneumoniae; in assay [1]; in assay [2]) was less than 7 µg/mL in each case.
On to `NCc1ccc(CNC(=O)c2cc(-c3c[nH]c4ccc(Br)cc34)nc3ccc(C#CCN4CCCC4)cc23)cc1` [Example 238], for which the MIC was less than 7 µg/mL with Streptococcus pneumoniae, less than 7 µg/mL in assay [1] and less than 25 µg/mL in assay [2].
As to `NCc1ccc(CNC(=O)c2cc(-c3c[nH]c4ccc(Br)cc34)nc3ccc(C#CCN4CCSCC4)cc23)cc1` [Example 239], the MIC in the assay on Streptococcus pneumoniae is more than 25 µg/mL; in assay [1], less than 7 µg/mL; in assay [2] it was less than 7 µg/mL.
For the compound `NCc1ccc(CNC(=O)c2cc(-c3c[nH]c4ccc(Br)cc34)nc3ccc(C#CCN4CCc5ccccc5C4)cc23)cc1` [Example 240], the figures for the MIC (in the assay with Streptococcus pneumoniae; in assay [1]; in assay [2]) were more than 25 µg/mL, less than 7 µg/mL and less than 25 µg/mL, respectively.
Regarding `NCc1ccc(CNC(=O)c2cc(-c3c[nH]c4ccc(Br)cc34)nc3ccc(C#CCN4CC=CCC4)cc23)cc1` [Example 241], the MIC (with Streptococcus pneumoniae; in assay [1]; in assay [2]) was less than 7 µg/mL throughout.
Consider `NCc1cccc(CNC(=O)c2cc(-c3c[nH]c4ccc(Br)cc34)nc3ccc(C#CCN4CCCC4)cc23)c1` [Example 242], for which the MIC in the assay on Streptococcus pneumoniae is less than 7 µg/mL; in assay [1], less than 7 µg/mL; in assay [2], less than 25 µg/mL.
For `NCc1cccc(CNC(=O)c2cc(-c3c[nH]c4ccc(Br)cc34)nc3cc(Cl)c(I)cc23)c1` [Example 243], the MIC (in the assay on Streptococcus pneumoniae; in assay [1]; in assay [2]) was less than 7 µg/mL throughout.
For `NCC1CCC(CNC(=O)c2cc(-c3c[nH]c4ccc(Br)cc34)nc3cc(Cl)c(I)cc23)CC1` (stereo not drawn) [Example 244], the MIC (in the assay on Streptococcus pneumoniae; in assay [1]; in assay [2]) was less than 7 µg/mL in each case.
With `NCC1CCCC(CNC(=O)c2cc(-c3c[nH]c4ccc(Br)cc34)nc3cc(Cl)c(I)cc23)C1` (stereo not drawn) [Example 245], the MIC (in the assay with Streptococcus pneumoniae; in assay [1]; in assay [2]) was less than 7 µg/mL in each case.
Regarding `NCc1cccc(CNC(=O)c2cc(-c3c[nH]c4ccc(Br)cc34)nc3cc(Cl)cc(Cl)c23)c1` [Example 246], the MIC (with Streptococcus pneumoniae; in assay [1]; in assay [2]) was less than 7 µg/mL throughout.
Take `NCC1CCC(CNC(=O)c2cc(-c3c[nH]c4ccc(Br)cc34)nc3cc(Cl)cc(Cl)c23)CC1` (stereo not drawn) [Example 247]: the MIC (in the assay on Streptococcus pneumoniae; in assay [1]; in assay [2]) was less than 7 µg/mL in each case.
On to `NCC1CCCC(CNC(=O)c2cc(-c3c[nH]c4ccc(Br)cc34)nc3cc(Cl)cc(Cl)c23)C1` (stereo not drawn) [Example 248], for which the minimal inhibitory concentration (MIC) (with Streptococcus pneumoniae; in assay [1]; in assay [2]) was less than 7 µg/mL each time.
On to `NCc1ccc(CNC(=O)c2cc(-c3c[nH]c4ccc(Br)cc34)nc3cc(I)ccc23)cc1` [Example 249], for which the minimal inhibitory concentration (MIC) (with Streptococcus pneumoniae; in assay [1]; in assay [2]) was less than 7 µg/mL throughout.
As to `NCC1CCCC(CNC(=O)c2cc(-c3c[nH]c4ccc(Br)cc34)nc3cc(I)ccc23)C1` (stereo not drawn) [Example 250], the MIC (with Streptococcus pneumoniae; in assay [1]; in assay [2]) was less than 7 µg/mL throughout.
With `NCC1CCC(CNC(=O)c2cc(-c3c[nH]c4ccc(Br)cc34)nc3cc(I)ccc23)CC1` (stereo not drawn) [Example 251], the MIC (in the assay with Streptococcus pneumoniae; in assay [1]; in assay [2]) was less than 7 µg/mL throughout.
Consider `NCc1cccc(CNC(=O)c2cc(-c3c[nH]c4ccc(Br)cc34)nc3cc(I)ccc23)c1` [Example 252], for which the MIC (with Streptococcus pneumoniae; in assay [1]; in assay [2]) was less than 7 µg/mL in each case.
On to `NCc1ccc(CNC(=O)c2cc(-c3c[nH]c4ccc(Br)cc34)nc3ccc(F)cc23)cc1` [Example 253], for which the figures for the MIC (in the assay on Streptococcus pneumoniae; in assay [1]; in assay [2]) were less than 7 µg/mL, less than 7 µg/mL and less than 25 µg/mL, respectively.
For `NCc1ccc(CNC(=O)c2cc(-c3c[nH]c4ccc(Br)cc34)nc3cc(F)ccc23)cc1` [Example 254], the MIC (in the assay on Streptococcus pneumoniae; in assay [1]; in assay [2]) was less than 7 µg/mL in each case.
As to `NCc1ccc(CNC(=O)c2cc(-c3c[nH]c4ccc(Br)cc34)nc3c(F)cccc23)cc1` [Example 256], the MIC (with Streptococcus pneumoniae; in assay [1]; in assay [2]) was less than 7 µg/mL throughout.
Consider `NCc1cccc(CNC(=O)c2cc(-c3c[nH]c4ccc(Br)cc34)nc3c(F)cccc23)c1` [Example 257], for which the MIC (in the assay on Streptococcus pneumoniae; in assay [1]; in assay [2]) was less than 7 µg/mL throughout.
Consider `NCC1CCC(CNC(=O)c2cc(-c3c[nH]c4ccc(Br)cc34)nc3c(F)cccc23)CC1` (stereo not drawn) [Example 258], for which the MIC (in the assay with Streptococcus pneumoniae; in assay [1]; in assay [2]) was less than 7 µg/mL in each case.
`NCC1CCCC(CNC(=O)c2cc(-c3c[nH]c4ccc(Br)cc34)nc3c(F)cccc23)C1` (stereo not drawn) [Example 259]: the MIC (with Streptococcus pneumoniae; in assay [1]; in assay [2]) was less than 7 µg/mL each time.
For `NCc1ccc(CNC(=O)c2cc(-c3c[nH]c4c(Cl)cccc34)nc3ccccc23)cc1` [Example 260], the MIC (with Streptococcus pneumoniae; in assay [1]; in assay [2]) was less than 25 µg/mL each time.
`NCc1ccc(CNC(=O)c2cc(-c3c[nH]c4c(Br)cccc34)nc3ccccc23)cc1` [Example 261]: the MIC (with Streptococcus pneumoniae; in assay [1]; in assay [2]) was less than 25 µg/mL in each case.
As to `NCc1ccc(CNC(=O)c2cc(-c3c[nH]c4ccc(Br)cc34)nc3cc(C#CCN4CCCCC4)ccc23)cc1` [Example 262], the MIC (in the assay on Streptococcus pneumoniae; in assay [1]; in assay [2]) was less than 7 µg/mL each time.
For `NCc1ccc(CNC(=O)c2cc(-c3c[nH]c4ccc(Br)cc34)nc3c(C#CCN4CCCCC4)cccc23)cc1` [Example 263], the MIC with Streptococcus pneumoniae is less than 7 µg/mL; in assay [1] it was less than 25 µg/mL; in assay [2], less than 25 µg/mL.
Consider `COc1ccc(NC(=O)CCc2cc(-c3c[nH]c4ccc(Br)cc34)nc3ccc(C#CCN4CCCCC4)cc23)cc1` [Example 266], for which the minimum inhibitory concentration (MIC) with Streptococcus pneumoniae is less than 7 µg/mL; in assay [1], less than 7 µg/mL; in assay [2] it was more than 25 µg/mL.
As to `NCc1ccc(CNC(=O)c2cc(-c3c[nH]c4ccc(Br)cc34)nc3cc(C#CCN4CCSCC4)ccc23)cc1` [Example 270], the MIC in the assay on Streptococcus pneumoniae was more than 25 µg/mL; in assay [1] it was less than 25 µg/mL; in assay [2], less than 25 µg/mL.
For `NCc1ccc(CNC(=O)c2cc(-c3c[nH]c4ccc(Br)cc34)nc3c(C#CCN4CCSCC4)cccc23)cc1` [Example 271], the MIC is less than 7 µg/mL in the assay with Streptococcus pneumoniae, less than 7 µg/mL in assay [1] and less than 25 µg/mL in assay [2].
Regarding `NCc1ccc(CNC(=O)c2cc(-c3c[nH]c4ccc(Br)cc34)nc3cc(Cl)c(C#CCN4CCSCC4)cc23)cc1` [Example 272], the MIC (in the assay with Streptococcus pneumoniae; in assay [1]; in assay [2]) was less than 7 µg/mL throughout.
`NCc1ccc(CNC(=O)c2cc(-c3c[nH]c4ccc(Br)cc34)nc3cc(Cl)c(C#CCNCCc4ccc(Cl)cc4)cc23)cc1` [Example 274]: the MIC with Streptococcus pneumoniae is less than 7 µg/mL; in assay [1], less than 25 µg/mL; in assay [2] it was more than 25 µg/mL.

For the origin of these results see patent US6376670B1, “Quinoline-indole antimicrobial agents, uses and compositions related thereto” (Sepracor Inc., priority 1997, dated 2002).
